Laboratory results: patent US20200062773A1, “4,4a,5,7-TETRAHYDRO-3H-FURO[3,4-b]PYRIDINYL COMPOUNDS” (Janssen Pharmaceutlca NV, priority 2016, published 2020)

Legend:
BACE1 = target: T1, BACE1 (Homo sapiens, UniProt P56817); assay: BACE1 biochemical FRET based assay; conditions: Method 1: recombinant BACE1 1 μg/ml, 120 min at room temperature, pH 5.0
T1 construct: recombinant BACE1 protein in a final concentration of 1 μg/ml
How it was run: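 Recombinant BACE1 (1 μg/ml) incubated 120 min at room temperature with 10 μm Mca/Dnp-quenched 13-mer APP Swedish-mutant peptide in 40 mM citrate pH 5.0, 0.04% PEG, 4% DMSO. Fluorescence (ex 320/em 405 nm) change between T0 and T120 gives activity; IC50 from least-squares curve fit of % control versus concentration.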

[1] = tested on: Abeta 1-42 produced and secreted into the medium of human neuroblastoma SKNBE2 cells; assay: Cellular αLisa assay in SKNBE2 cells; assay type: cell-based; conditions: human neuroblastoma SKNBE2 cells expressing hAPP695, 18 hours incubation
How it was run: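 Human neuroblastoma SKNBE2 cells expressing wild-type hAPP695 were exposed to compound for 18 hours. Secreted Abeta 1-42 in medium was quantified by sandwich αLisa (AbN/25 and cAb42/26 beads; 1 h, excitation 650 nm, emission 615 nm). IC50 came from a least-squares curve fit of % Controlmin against concentration.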

BACE2 = target: T2, BACE2 (Homo sapiens, UniProt Q9Y5Z0); assay: BACE2 biochemical FRET based assay; conditions: recombinant BACE2, 450 minutes at room temperature, pH 5.0
T2 construct: recombinant BACE2 protein in a final concentration of 0.4 μg/ml
T2 sequence (Q9Y5Z0 63-518): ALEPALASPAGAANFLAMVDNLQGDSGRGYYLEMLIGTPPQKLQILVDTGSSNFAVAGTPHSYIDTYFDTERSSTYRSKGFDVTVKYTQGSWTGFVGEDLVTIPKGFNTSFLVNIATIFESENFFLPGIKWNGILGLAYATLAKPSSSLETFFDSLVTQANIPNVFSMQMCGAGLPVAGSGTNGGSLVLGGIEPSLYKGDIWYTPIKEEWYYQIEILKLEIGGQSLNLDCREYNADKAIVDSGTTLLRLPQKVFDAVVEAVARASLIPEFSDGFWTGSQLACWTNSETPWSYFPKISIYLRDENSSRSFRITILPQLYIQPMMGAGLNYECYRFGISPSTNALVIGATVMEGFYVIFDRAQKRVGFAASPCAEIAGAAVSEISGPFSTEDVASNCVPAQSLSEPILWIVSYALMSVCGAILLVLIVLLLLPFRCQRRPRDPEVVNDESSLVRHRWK
How it was run: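 Recombinant BACE2 (0.4 μg/ml) incubated 450 min at room temperature with 10 μM Mca/Dnp Swedish-APP FRET substrate in 50 mM citrate pH 5.0, 0.05% PEG, no DMSO. Fluorescence (ex 320/em 405 nm) difference T450 minus T0; IC50 from least-squares fit of % control versus concentration.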

[2] = tested on: Abeta 1-42 in cerebrospinal fluid (CSF); assay: Pharmacology in the beagle dog: beta-amyloid profile in CSF after a single dose; assay type: in vivo; conditions: for % Mean decrease in Abeta 1-42 at 8 h post dosing compared to own baseline / % Mean decrease in Abeta 1-42 at 25 h post dosing compared to own baseline / % Mean decrease in Abeta 1-42 at 49 h post dosing compared to own baseline: beagle dog CSF; for EC50 Aβ42: beagle dog, CSF Abeta 1-42 after single dose
Experimental: Pharmacology in the Beagle Dog
(§1) Test compounds were tested to evaluate the effect on the beta-amyloid profile in cerebrospinal fluid (CSF) of dogs after a single dose, in combination with pharmacokinetic (PK) follow up and limited safety evaluation. For each of compound 4b, 3c, 7d, or 14, four beagle dogs (2 males, 2 females) were dosed with vehicle (1 ml/kg of an aqueous solution of 20% cyclodextrin) and 12, 8, 4 and 4 beagle dogs (2 males and 2 females per dosage group), were dosed with test compounds as follows:
CSF was taken in conscious animals directly from the lateral ventricle via a cannula which was screwed in the skull and covered with subcutaneous tissue and skin, before and at 4, 8, 25 and 49 hours after dosing. Eight hours after dosing the animals got access to their regular meal for 30 minutes. Blood was taken for PK follow up (0.5, 1, 2, 4, 8, 25 and 49 hours) and serum samples for biochemistry were taken before and at 8 and 25 h after dosing. The CSF samples were used for measurement of Abeta 1-42.

[3] = Limited safety evaluation in the beagle dog (observations, serum biochemistry); assay type: in vivo
Experimental: as §1
CSF was taken in conscious animals directly from the lateral ventricle via a cannula which was screwed in the skull and covered with subcutaneous tissue and skin, before and at 4, 8, 25 and 49 hours after dosing. Eight hours after dosing the animals got access to their regular meal for 30 minutes. […] The CSF samples were used for measurement of Abeta 1-42.

[4] = Phase 2 trial, development terminated June 2013; cited from earlier work
[5] = read-out: Biochemical FRET based assay pIC50 (converted)

T1 sequence (P56817 46-501): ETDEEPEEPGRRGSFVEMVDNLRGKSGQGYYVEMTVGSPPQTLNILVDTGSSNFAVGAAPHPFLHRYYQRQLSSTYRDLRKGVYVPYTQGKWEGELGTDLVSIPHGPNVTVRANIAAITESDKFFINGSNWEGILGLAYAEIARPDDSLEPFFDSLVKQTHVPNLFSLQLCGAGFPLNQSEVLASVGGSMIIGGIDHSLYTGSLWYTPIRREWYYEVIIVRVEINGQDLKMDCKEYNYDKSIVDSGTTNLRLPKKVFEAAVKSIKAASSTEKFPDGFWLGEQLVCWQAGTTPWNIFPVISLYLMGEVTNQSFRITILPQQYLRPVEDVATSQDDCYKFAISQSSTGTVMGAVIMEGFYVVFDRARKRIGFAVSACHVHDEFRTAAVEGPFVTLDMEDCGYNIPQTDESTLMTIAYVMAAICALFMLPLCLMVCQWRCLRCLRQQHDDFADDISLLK

## C[C@@]1(C#N)C[C@@H]2[C@@H](C(F)(F)F)OC[C@]2(c2cc(NC(=O)c3ccc(C#N)cn3)ccc2F)N=C1N [3c]
BACE1
  Biochemical FRET based assay pIC50: 9.06
[1]
  Cellular αLisa assay in SKNBE2 cells Abeta 42 pIC50: 8.52
BACE2
  Biochemical FRET based assay pIC50: 7.97
[2]; single dose 0.08 mg/kg
  % Mean decrease in Abeta 1-42 at 8 h post dosing compared to own baseline: 29%
  % Mean decrease in Abeta 1-42 at 25 h post dosing compared to own baseline: 27%
  % Mean decrease in Abeta 1-42 at 49 h post dosing compared to own baseline: NR (NR means % decrease < 20)
[2]; single dose 0.31 mg/kg
  % Mean decrease in Abeta 1-42 at 8 h post dosing compared to own baseline: 64%
  % Mean decrease in Abeta 1-42 at 25 h post dosing compared to own baseline: 62%
  % Mean decrease in Abeta 1-42 at 49 h post dosing compared to own baseline: 50%
[2]
  EC50 Aβ42: 19 ng/mL
[3]; one female dog dosed at 0.08 mg/kg, single dose, 8 h post dosing
  Observations: moderate diarrhea

## C[C@H]1OC[C@]2(c3cc(NC(=O)c4ccc(C#N)cn4)ccc3F)N=C(N)[C@](C)(C#N)C[C@H]12 [4b]
BACE1
  Biochemical FRET based assay pIC50: 8.73
[1]
  Cellular αLisa assay in SKNBE2 cells Abeta 42 pIC50: 8.9
BACE2
  Biochemical FRET based assay pIC50: 7.84
[2]; single dose 0.16 mg/kg
  % Mean decrease in Abeta 1-42 at 8 h post dosing compared to own baseline: 42%
  % Mean decrease in Abeta 1-42 at 25 h post dosing compared to own baseline: 21%
  % Mean decrease in Abeta 1-42 at 49 h post dosing compared to own baseline: NR (NR means % decrease < 20)
[2]; single dose 0.31 mg/kg
  % Mean decrease in Abeta 1-42 at 8 h post dosing compared to own baseline: 54%
  % Mean decrease in Abeta 1-42 at 25 h post dosing compared to own baseline: 53%
  % Mean decrease in Abeta 1-42 at 49 h post dosing compared to own baseline: NR (NR means % decrease < 20)
[2]; single dose 1.25 mg/kg
  % Mean decrease in Abeta 1-42 at 8 h post dosing compared to own baseline: 80%
  % Mean decrease in Abeta 1-42 at 25 h post dosing compared to own baseline: 71%
  % Mean decrease in Abeta 1-42 at 49 h post dosing compared to own baseline: 34%
[2]
  EC50 Aβ42: 24 ng/mL
[3]; one female dog dosed at 1.25 mg/kg, single dose, 8 h post dosing
  Observations: slight diarrhea

## C[C@@]1(C#N)C[C@@H]2[C@@H](C(F)(F)F)OC[C@]2(c2cc(NC(=O)c3cnc(OCF)cn3)ccc2F)N=C1N [7d]
BACE1
  Biochemical FRET based assay pIC50: 8.79
[1]
  Cellular αLisa assay in SKNBE2 cells Abeta 42 pIC50: 8.02
BACE2
  Biochemical FRET based assay pIC50: 7.25
[2]; single dose 0.31 mg/kg
  % Mean decrease in Abeta 1-42 at 8 h post dosing compared to own baseline: 42%
  % Mean decrease in Abeta 1-42 at 25 h post dosing compared to own baseline: NR (NR means % decrease < 20)
[3]; one female dog, 0.31 mg/kg single dose
  ALT liver enzyme increase: 6 fold
[3]; one female dog, 0.31 mg/kg single dose, 49 h post dosing
  Observations: slight tremors and head shaking

## NC1=N[C@@]2(c3cc(NC(=O)c4ccc(F)cn4)ccc3F)COC[C@H]2CS1 [LY2886721]
[4]
  liver abnormalities (patients affected): four out of 45

## CC(F)(F)[C@H]1OC[C@]2(c3cc(NC(=O)c4cnc(OCF)cn4)ccc3F)N=C(N)[C@](C)(C#N)C[C@H]12 [compound 14]
BACE1; [5]
  IC50: 2.24 nM
[1]; Homo sapiens, SKNBE2, 18 h, read-out: Cellular αLisa assay in SKNBE2 cells Abeta 42 pIC50 (converted)
  IC50: 6.92 nM
BACE2; [5]
  IC50: 81.3 nM
[2]; single dose 0.63 mg/kg
  % Mean decrease in Abeta 1-42 at 8 h post dosing compared to own baseline: 32%
  % Mean decrease in Abeta 1-42 at 25 h post dosing compared to own baseline: NR (NR means % decrease < 20)
  % Mean decrease in Abeta 1-42 at 49 h post dosing compared to own baseline: NR (NR means % decrease < 20)
[3]; one dog, 0.63 mg/kg single dose, 2 h post dosing
  Observations: emesis
